Marks after values point to notes of the source that are not given here.
Key:
Set-up in all cases: species or system Sprague–Dawley rats
Conditions in all cases: rat, in vivo
[1] = OLINDA/EXM predicted clinical doses: adult female phantom, non-normalised τ, FBP
Method: (§1) PET studies were reconstructed using filtered-back projection (FBP) and Mediso’s iterative Tera-Tomo 3D reconstruction algorithm with the following settings: 4 iterations, 6 subsets, full detector model, normal regularization, spike filter on, voxel size 0.4 mm and 400‒600 keV energy window. PET data were corrected for randoms, scatter and attenuation. Time-activity curves for each source organ, whole-body and remainder of the body were plotted. […] Residence times (τ) were determined for each radiotracer in source organs, whole-body and remaining (any activity assigned to the whole-body but not assigned to a source organ). Each preclinical source organ’s τ was determined by calculating the area under its respective time-activity curve (activity normalised to the percentage maximum injected dose as a function of time) using the trapezoid method. […] From each individual animal, eight dosimetry models were constructed from all possible combinations of image reconstruction method (FBP or iterative), τ (non-normalised or normalised to human organ masses), and sex of phantom (male or female). Supplementary table 6. Predicted clinical absorbed organ doses and whole-body effective doses of PET radiotracers using non-normalised (preclinical) adult female source organ residence times from filtered backprojection reconstructions.

[2] = OLINDA/EXM predicted clinical doses: adult male phantom, normalised τ, FBP
Method: as §1, with “female).” for “female). Supplementary table 6. Predicted clinical absorbed organ doses and whole-body effective doses of PET radiotracers using non-normalised (preclinical) adult female source organ residence times from filtered backprojection reconstructions.”

[3] = Residence times normalised to human organ masses, FBP reconstruction
Method: as §1, with “1. Scaling (normalisation) factors applied to residence times” for “6. Predicted clinical absorbed organ doses and whole-body effective doses”, “in male Sprague-Dawley rats to predict human” for “using non-normalised (preclinical)”, “adult” for “adult female source organ”, “times. […] Stabin et al. 2006 ^4); WB: Whole Body.” for “times from filtered backprojection reconstructions.”

[4] = OLINDA/EXM predicted clinical doses: adult male phantom, non-normalised τ, iterative
Method: as §1, with “female).” for “female). Supplementary table 6. Predicted clinical absorbed organ doses and whole-body effective doses of PET radiotracers using non-normalised (preclinical) adult female source organ residence times from filtered backprojection reconstructions.”

[5] = OLINDA/EXM predicted clinical doses: adult male phantom, non-normalised τ, FBP
Method: as §1, with “female).” for “female). Supplementary table 6. Predicted clinical absorbed organ doses and whole-body effective doses of PET radiotracers using non-normalised (preclinical) adult female source organ residence times from filtered backprojection reconstructions.”

Effective Dose (mSv/MBq), Average ± SD [1]: 6.49E-02 mSv/MBq
Estimated Absorbed Dose of Organ, Average: Adrenals [1]: 1.46E-02 mGy/MBq
Estimated Absorbed Dose of Organ, Average: Brain [1]: 3.20E-03 mGy/MBq
Estimated Absorbed Dose of Organ, Average: Breasts [1]: 1.01E-02 mGy/MBq
Estimated Absorbed Dose of Organ, Average: Gallbladder Wall [1]: 1.49E-02 mGy/MBq
Estimated Absorbed Dose of Organ, Average: Heart Wall [1]: 9.41E-03 mGy/MBq
Estimated Absorbed Dose of Organ, Average: Kidneys [1]: 2.70E-02 § mGy/MBq
Estimated Absorbed Dose of Organ, Average: LLI Wall [1]: 1.62E-01 ‡ mGy/MBq
Estimated Absorbed Dose of Organ, Average: Liver [1]: 9.39E-03 mGy/MBq
Estimated Absorbed Dose of Organ, Average: Lungs [1]: 7.79E-03 mGy/MBq
Estimated Absorbed Dose of Organ, Average: Muscle [1]: 1.61E-02 mGy/MBq
Estimated Absorbed Dose of Organ, Average: Osteogenic Cells [1]: 2.13E-02 mGy/MBq
Estimated Absorbed Dose of Organ, Average: Ovaries [1]: 3.85E-02 mGy/MBq
Estimated Absorbed Dose of Organ, Average: Pancreas [1]: 1.53E-02 mGy/MBq
Estimated Absorbed Dose of Organ, Average: Red Marrow [1]: 1.52E-02 mGy/MBq
Estimated Absorbed Dose of Organ, Average: Skin [1]: 1.08E-02 mGy/MBq
Estimated Absorbed Dose of Organ, Average: Small Intestine [1]: 2.41E-02 mGy/MBq
Estimated Absorbed Dose of Organ, Average: Spleen [1]: 1.45E-02 mGy/MBq
Estimated Absorbed Dose of Organ, Average: Stomach Wall [1]: 1.50E-02 mGy/MBq
Estimated Absorbed Dose of Organ, Average: Thymus [1]: 1.25E-02 mGy/MBq
Estimated Absorbed Dose of Organ, Average: Thyroid [1]: 1.15E-02 mGy/MBq
Estimated Absorbed Dose of Organ, Average: Total Body [1]: 1.63E-02 mGy/MBq
Estimated Absorbed Dose of Organ, Average: ULI Wall [1]: 2.11E-02 mGy/MBq
Estimated Absorbed Dose of Organ, Average: Urinary Bladder Wall [1]: 6.07E-01 † mGy/MBq
Estimated Absorbed Dose of Organ, Average: Uterus [1]: 4.81E-02 mGy/MBq
Effective Dose (mSv/MBq), Average ± SD [2]: 2.18E-02 mSv/MBq
Estimated Absorbed Dose of Organ, Average: Adrenals [2]: 1.10E-02 mGy/MBq
Estimated Absorbed Dose of Organ, Average: Brain [2]: 3.17E-03 mGy/MBq
Estimated Absorbed Dose of Organ, Average: Breasts [2]: 8.04E-03 mGy/MBq
Estimated Absorbed Dose of Organ, Average: Gallbladder Wall [2]: 1.15E-02 mGy/MBq
Estimated Absorbed Dose of Organ, Average: Heart Wall [2]: 1.15E-02 mGy/MBq
Estimated Absorbed Dose of Organ, Average: Kidneys [2]: 1.64E-02 § mGy/MBq
Estimated Absorbed Dose of Organ, Average: LLI Wall [2]: 5.79E-02 ‡ mGy/MBq
Estimated Absorbed Dose of Organ, Average: Liver [2]: 6.81E-03 mGy/MBq
Estimated Absorbed Dose of Organ, Average: Lungs [2]: 8.79E-03 mGy/MBq
Estimated Absorbed Dose of Organ, Average: Muscle [2]: 1.05E-02 mGy/MBq
Estimated Absorbed Dose of Organ, Average: Osteogenic Cells [2]: 1.53E-02 mGy/MBq
Estimated Absorbed Dose of Organ, Average: Pancreas [2]: 1.17E-02 mGy/MBq
Estimated Absorbed Dose of Organ, Average: Red Marrow [2]: 9.94E-03 mGy/MBq
Estimated Absorbed Dose of Organ, Average: Skin [2]: 7.88E-03 mGy/MBq
Estimated Absorbed Dose of Organ, Average: Small Intestine [2]: 1.40E-02 mGy/MBq
Estimated Absorbed Dose of Organ, Average: Spleen [2]: 1.09E-02 mGy/MBq
Estimated Absorbed Dose of Organ, Average: Stomach Wall [2]: 1.13E-02 mGy/MBq
Estimated Absorbed Dose of Organ, Average: Testes [2]: 1.18E-02 mGy/MBq
Estimated Absorbed Dose of Organ, Average: Thymus [2]: 9.99E-03 mGy/MBq
Estimated Absorbed Dose of Organ, Average: Thyroid [2]: 9.88E-03 mGy/MBq
Estimated Absorbed Dose of Organ, Average: Total Body [2]: 1.05E-02 mGy/MBq
Estimated Absorbed Dose of Organ, Average: ULI Wall [2]: 1.28E-02 mGy/MBq
Estimated Absorbed Dose of Organ, Average: Urinary Bladder Wall [2]: 1.16E-01 † mGy/MBq
Normalised Residence Time (h), Average: Remaining [3]: 1.98 h
Effective Dose (mSv/MBq), Average ± SD [4]: 6.30E-02 mSv/MBq
Estimated Absorbed Dose of Organ, Average ± SD: Adrenals [4]: 7.60E-03 mGy/MBq
Estimated Absorbed Dose of Organ, Average ± SD: Brain [4]: 1.47E-03 mGy/MBq
Estimated Absorbed Dose of Organ, Average ± SD: Breasts [4]: 4.25E-03 mGy/MBq
Estimated Absorbed Dose of Organ, Average ± SD: Gallbladder Wall [4]: 8.74E-03 mGy/MBq
Estimated Absorbed Dose of Organ, Average ± SD: Heart Wall [4]: 6.02E-03 mGy/MBq
Estimated Absorbed Dose of Organ, Average ± SD: Kidneys [4]: 4.41E-02 § mGy/MBq
Estimated Absorbed Dose of Organ, Average ± SD: LLI Wall [4]: 1.50E-01 ‡ mGy/MBq
Estimated Absorbed Dose of Organ, Average ± SD: Liver [4]: 8.14E-03 mGy/MBq
Estimated Absorbed Dose of Organ, Average ± SD: Lungs [4]: 3.96E-03 mGy/MBq
Estimated Absorbed Dose of Organ, Average ± SD: Muscle [4]: 1.06E-02 mGy/MBq
Estimated Absorbed Dose of Organ, Average ± SD: Osteogenic Cells [4]: 1.00E-02 mGy/MBq
Estimated Absorbed Dose of Organ, Average ± SD: Pancreas [4]: 7.83E-03 mGy/MBq
Estimated Absorbed Dose of Organ, Average ± SD: Red Marrow [4]: 9.28E-03 mGy/MBq
Estimated Absorbed Dose of Organ, Average ± SD: Skin [4]: 5.85E-03 mGy/MBq
Estimated Absorbed Dose of Organ, Average ± SD: Small Intestine [4]: 1.73E-02 mGy/MBq
Estimated Absorbed Dose of Organ, Average ± SD: Spleen [4]: 7.40E-03 mGy/MBq
Estimated Absorbed Dose of Organ, Average ± SD: Stomach Wall [4]: 7.65E-03 mGy/MBq
Estimated Absorbed Dose of Organ, Average ± SD: Testes [4]: 1.89E-02 mGy/MBq
Estimated Absorbed Dose of Organ, Average ± SD: Thymus [4]: 5.18E-03 mGy/MBq
Estimated Absorbed Dose of Organ, Average ± SD: Thyroid [4]: 5.01E-03 mGy/MBq
Estimated Absorbed Dose of Organ, Average ± SD: Total Body [4]: 1.06E-02 mGy/MBq
Estimated Absorbed Dose of Organ, Average ± SD: ULI Wall [4]: 1.35E-02 mGy/MBq
Estimated Absorbed Dose of Organ, Average ± SD: Urinary Bladder Wall [4]: 6.89E-01 † mGy/MBq
Effective Dose (mSv/MBq), Average [5]: 5.11E-02 mSv/MBq
Estimated Absorbed Dose of Organ, Average: Adrenals [5]: 1.14E-02 mGy/MBq
Estimated Absorbed Dose of Organ, Average: Brain [5]: 2.47E-03 mGy/MBq
Estimated Absorbed Dose of Organ, Average: Breasts [5]: 7.90E-03 mGy/MBq
Estimated Absorbed Dose of Organ, Average: Gallbladder Wall [5]: 1.24E-02 mGy/MBq
Estimated Absorbed Dose of Organ, Average: Heart Wall [5]: 7.37E-03 mGy/MBq
Estimated Absorbed Dose of Organ, Average: Kidneys [5]: 2.41E-02§ mGy/MBq
Estimated Absorbed Dose of Organ, Average: LLI Wall [5]: 1.46E-01 ‡ mGy/MBq
Estimated Absorbed Dose of Organ, Average: Liver [5]: 7.25E-03 mGy/MBq
Estimated Absorbed Dose of Organ, Average: Lungs [5]: 6.07E-03 mGy/MBq
Estimated Absorbed Dose of Organ, Average: Muscle [5]: 1.31E-02 mGy/MBq
Estimated Absorbed Dose of Organ, Average: Osteogenic Cells [5]: 1.64E-02 mGy/MBq
Estimated Absorbed Dose of Organ, Average: Pancreas [5]: 1.22E-02 mGy/MBq
Estimated Absorbed Dose of Organ, Average: Red Marrow [5]: 1.21E-02 mGy/MBq
Estimated Absorbed Dose of Organ, Average: Skin [5]: 8.75E-03 mGy/MBq
Estimated Absorbed Dose of Organ, Average: Small Intestine [5]: 1.97E-02 mGy/MBq
Estimated Absorbed Dose of Organ, Average: Spleen [5]: 1.15E-02 mGy/MBq
Estimated Absorbed Dose of Organ, Average: Stomach Wall [5]: 1.21E-02 mGy/MBq
Estimated Absorbed Dose of Organ, Average: Testes [5]: 1.85E-02 mGy/MBq
Estimated Absorbed Dose of Organ, Average: Thymus [5]: 9.71E-03 mGy/MBq
Estimated Absorbed Dose of Organ, Average: Thyroid [5]: 9.77E-03 mGy/MBq
Estimated Absorbed Dose of Organ, Average: Total Body [5]: 1.30E-02 mGy/MBq
Estimated Absorbed Dose of Organ, Average: ULI Wall [5]: 1.65E-02 mGy/MBq
Estimated Absorbed Dose of Organ, Average: Urinary Bladder Wall [5]: 4.35E-01 † mGy/MBq
Substance: NOTA-RGDfK [existing Al^18F-labelled NOTA-RGDfK peptide PET radiotracer; precursor NOTA-RGDfK (1)]

Reference: article PMC7525662, “Preclinical dosimetry models and the prediction of clinical doses of novel positron emission tomography radiotracers” (Scientific Reports, 2020)
